Each structure is given as a SMILES string.

Assay [1] deals with human Gal-3 (hGal-3) (Homo sapiens (Human), UniProt P17931). As to the kind of experiment: Competitive binding assay: binding of biotinylated hGal-3 to microplate-adsorbed asialofetuin (ASF). Conditions: Activity on hGal-3; mean values of several measurements. How it is done:
(§1) Evaluation of Compound Inhibitory Activity (IC50)
(§2) The inhibitory activity of compounds is determined in competitive binding assays. This spectrophotometric assay measures the binding of biotinylated human Gal-3 (hGal-3) or human Gal-1 (hGal-1), respectively, to a microplate-adsorbed glycoprotein, asialofetuin (ASF) (Proc Natl Acad Sci USA. 2013 Mar. 26; 110(13):5052-7.). Alternatively, and preferably, a human Gal-1 version in which all six cysteines are substituted by serines may be used.
(§3) Briefly, compounds are serially diluted in DMSO (working dilutions). ASF-coated 384 well plates are supplemented with 22.8 μL/well of biotinylated hGal-3 or hGal-1 in assay buffer (i.e. 300-1000 ng/mL biotinylated hGal-3 or hGal-1) to which 1.2 μL of compound working dilutions are added and mixed.
(§4) Plates are incubated for 3 hours at 4° C., then washed with cold assay buffer (3×50 uL), incubated for 1 hour with 25 μL/well of a streptavidin-peroxidase solution (diluted in assay buffer to 80 ng/mL) at 4° C., followed by further washing steps with assay buffer (3×50 uL). Finally, 25 μL/well of ABTS substrate is added.
(§5) The calculated IC50 values may fluctuate depending on the daily assay performance. Fluctuations of this kind are known to those skilled in the art. IC50 values from several measurements are given as mean values.

The target of assay [2] is human Gal-1 (hGal-1). Kind of assay: Competitive binding assay: binding of biotinylated hGal-1 to microplate-adsorbed asialofetuin (ASF). Conditions: Activities on hGal-1; mean values of several measurements. How it is done: as §1, §2, §3, §4, §5
Chain of human Gal-1 (hGal-1) (P09382 2-135 limits assumed): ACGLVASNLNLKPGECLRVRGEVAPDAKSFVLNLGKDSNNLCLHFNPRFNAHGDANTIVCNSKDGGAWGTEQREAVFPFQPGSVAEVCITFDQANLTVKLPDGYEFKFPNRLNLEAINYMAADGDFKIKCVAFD

Chain of human Gal-3 (hGal-3) (P17931 whole entry): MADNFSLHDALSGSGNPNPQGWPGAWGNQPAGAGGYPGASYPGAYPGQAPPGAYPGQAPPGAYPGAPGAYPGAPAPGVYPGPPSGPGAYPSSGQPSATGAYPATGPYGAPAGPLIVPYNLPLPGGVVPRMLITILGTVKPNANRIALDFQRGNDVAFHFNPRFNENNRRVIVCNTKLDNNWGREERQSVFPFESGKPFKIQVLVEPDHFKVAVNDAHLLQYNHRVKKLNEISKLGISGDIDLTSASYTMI

By IC50 is commonly meant the concentration needed to halve the response being measured. Take `CO[C@@H]1[C@@H](n2cc(-c3cc(F)c(F)c(F)c3)nn2)[C@@H](O)[C@@H](CO)O[C@H]1Cc1cn(C2CCN(C(=O)OC(C)(C)C)CC2)nn1` [Example 4.11, tert-butyl 4-(4-(((2S,3R,4S,5R,6R)-5-hydroxy-6-(hydroxymethyl)-3-methoxy-4-(4-(3,4,5-trifluorophenyl)-1H-1,2,3-triazol-1-yl)tetrahydro-2H-pyran-2-yl)methyl)-1H-1,2,3-triazol-1-yl)piperidine-1-carboxylate]: the IC50 in assay [1] is 1200 nM; in assay [2] it was 3030 nM.

In the case of `CO[C@@H]1[C@@H](n2cc(-c3cc(F)c(F)c(F)c3)nn2)[C@@H](O)[C@@H](CO)O[C@@H]1Cc1cn(C2CC[S+]([O-])CC2)nn1` (stereo partly drawn) [Example 4.15, 4-(4-(((2R,3R,4S,5R,6R)-5-hydroxy-6-(hydroxymethyl)-3-methoxy-4-(4-(3,4,5-trifluorophenyl)-1H-1,2,3-triazol-1-yl)tetrahydro-2H-pyran-2-yl)methyl)-1H-1,2,3-triazol-1-yl)tetrahydro-2H-thiopyran 1-oxide], the figures for the IC50 in assay [1] and in assay [2] were 210 nM and 4900 nM, respectively.

As to `CO[C@@H]1[C@@H](n2cc(-c3cc(F)c(F)c(F)c3)nn2)[C@@H](O)[C@@H](CO)O[C@@H]1Cc1cc(C2CCC(NC(=O)OC(C)(C)C)CC2)no1` (stereo partly drawn) [Ex 1.134], the values for the half-maximal inhibitory concentration (IC50) in assay [1] and in assay [2] were 84 nM and 10800 nM, respectively.

As to `CO[C@@H]1[C@@H](n2cc(-c3ccc(F)c(F)c3F)nn2)[C@@H](O)[C@@H](CO)O[C@@H]1Cc1cc(C(C)(C)O)no1` [Example 2.61, (2R,3R,4S,5R,6R)-2-(hydroxymethyl)-6-((3-(2-hydroxypropan-2-yl)isoxazol-5-yl)methyl)-5-methoxy-4-(4-(2,3,4-trifluorophenyl)-1H-1,2,3-triazol-1-yl)tetrahydro-2H-pyran-3-ol], the figures for the IC50 in assay [1] and in assay [2] were 110 nM and 780 nM, respectively.

`CC(C)(CO)c1cc(C[C@H]2O[C@H](CO)[C@H](O)[C@H](n3cc(-c4ccc(F)c(F)c4F)nn3)[C@H]2OCC(=O)O)on1` [Example 2.46, 2-(((2R,3R,4S,5R,6R)-5-hydroxy-2-((3-(1-hydroxy-2-methylpropan-2-yl)isoxazol-5-yl)methyl)-6-(hydroxymethyl)-4-(4-(2,3,4-trifluorophenyl)-1H-1,2,3-triazol-1-yl)tetrahydro-2H-pyran-3-yl)oxy)acetic acid]: the results for the IC50 in assay [1] and in assay [2] were 29 nM and 890 nM, respectively.

For `CO[C@@H]1[C@@H](n2cc(-c3ccc(Cl)c(F)c3)nn2)[C@@H](O)[C@@H](CO)O[C@@H]1CC1CC(C2CCN(C(=O)OC(C)(C)C)CC2)=NO1` (stereo partly drawn) [Ex 1.116], the values for the IC50 in assay [1] and in assay [2] were 170 nM and 1750 nM, respectively.

`CO[C@@H]1[C@@H](n2cc(-c3cccc(F)c3)nn2)[C@@H](O)[C@@H](CO)O[C@@H]1Cc1cc(C2CCN(C(=O)OC(C)(C)C)CC2)on1` [Ex 1.228]: the figures for the half-inhibitory concentration (IC50) in assay [1] and in assay [2] were 200 nM and 790 nM, respectively.

`CO[C@@H]1[C@@H](n2cc(-c3cc(F)c(F)c(F)c3)nn2)[C@@H](O)[C@@H](CO)O[C@@H]1Cc1cn(C2CCS(=O)(=NCc3ccccc3)CC2)nn1` (stereo partly drawn) [Example 4.28, 1-(benzylimino)-4-(4-(((2R,3R,4S,5R,6R)-5-hydroxy-6-(hydroxymethyl)-3-methoxy-4-(4-(3,4,5-trifluorophenyl)-1H-1,2,3-triazol-1-yl)tetrahydro-2H-pyran-2-yl)methyl)-1H-1,2,3-triazol-1-yl)hexahydro-1l6-thiopyran 1-oxide]: the IC50 in assay [1] stood at 13 nM; in assay [2], 120 nM.

With `CO[C@@H]1[C@@H](n2cc(-c3cc(F)c(F)c(F)c3)nn2)[C@@H](O)[C@@H](CO)O[C@@H]1Cc1cc(C2CCN(C(=O)OC(C)(C)C)CC2)no1` [Ex 1.62], the IC50 in assay [1] came to 76 nM; in assay [2], 450 nM.

As to `CC(=O)N1CCC([C@H]2CC(C[C@H]3O[C@H](CO)[C@H](O)[C@H](n4cc(-c5cc(F)c(F)c(F)c5)nn4)[C@H]3O)=NO2)CC1` [Example 3.19, 1-(4-((R)-3-(((2R,3R,4R,5R,6R)-3,5-dihydroxy-6-(hydroxymethyl)-4-(4-(3,4,5-trifluorophenyl)-1H-1,2,3-triazol-1-yl)tetrahydro-2H-pyran-2-yl)methyl)-4,5-dihydroisoxazol-5-yl)piperidin-1-yl)ethan-1-one], the IC50 in assay [1] worked out at 430 nM; in assay [2] it was 4720 nM.

In the case of `CO[C@@H]1[C@@H](n2cc(-c3cc(F)c(F)c(F)c3)nn2)[C@@H](O)[C@@H](CO)O[C@@H]1Cn1cc(C2CCCCC2)nn1` [Example 4.29, (2R,3R,4S,5R,6R)-6-((4-cyclohexyl-1H-1,2,3-triazol-1-yl)methyl)-2-(hydroxymethyl)-5-methoxy-4-(4-(3,4,5-trifluorophenyl)-1H-1,2,3-triazol-1-yl)tetrahydro-2H-pyran-3-ol], the results for the half-inhibitory concentration (IC50) in assay [1] and in assay [2] were 310 nM and 2740 nM, respectively.

As for `CO[C@@H]1[C@@H](n2cc(-c3cccc4ccccc34)nn2)[C@@H](O)[C@@H](CO)O[C@@H]1CC1CC(C2CCN(C(=O)OC(C)(C)C)CC2)=NO1` (stereo partly drawn) [Ex 1.305], the 50% inhibitory concentration (IC50) in assay [1] amounted to 1860 nM; in assay [2], 1180 nM.

As for `CO[C@@H]1[C@@H](n2cc(-c3ccc(C)c(F)c3F)nn2)[C@@H](O)[C@@H](CO)O[C@@H]1Cc1cc(C2(O)CCCC2)no1` [Ex 1.326], the IC50 came out at 57 nM in assay [1] and 2870 nM in assay [2].

Turning to `OC[C@H]1O[C@H](Cc2cc(C3CCC(O)CC3)on2)[C@H](O)[C@@H](n2cc(-c3cc(F)c(F)c(F)c3)nn2)[C@H]1O` (stereo partly drawn) [Example 2.13, (2R,3R,4R,5R,6R)-2-((5-(4-hydroxycyclohexyl)isoxazol-3-yl)methyl)-6-(hydroxymethyl)-4-(4-(3,4,5-trifluorophenyl)-1H-1,2,3-triazol-1-yl)tetrahydro-2H-pyran-3,5-diol], the IC50 was 210 nM in assay [1] and 1990 nM in assay [2].

In the case of `O=c1[nH]c2ccc(C3=NOC(C[C@H]4O[C@H](CO)[C@H](O)[C@H](n5cc(-c6cc(F)c(F)c(F)c6)nn5)[C@H]4O)C3)cc2o1` (stereo partly drawn) [Ex 1.21], the figures for the IC50 in assay [1] and in assay [2] were 150 nM and 4770 nM, respectively.

With `CO[C@@H]1[C@@H](n2cc(-c3cc(F)c(F)c(F)c3)nn2)[C@@H](O)[C@@H](CO)O[C@@H]1Cc1cc(C2CCN(C(=O)C3CCC3)CC2)on1` [Example 3.50, cyclobutyl(4-(3-(((2R,3R,4S,5R,6R)-5-hydroxy-6-(hydroxymethyl)-3-methoxy-4-(4-(3,4,5-trifluorophenyl)-1H-1,2,3-triazol-1-yl)tetrahydro-2H-pyran-2-yl)methyl)isoxazol-5-yl)piperidin-1-yl)methanone], the half-maximal inhibitory concentration (IC50) was determined as 45 nM in assay [1] and 590 nM in assay [2].

Turning to `CO[C@@H]1[C@@H](n2cc(-c3cc(F)c(F)c(F)c3)nn2)[C@@H](O)[C@@H](CO)O[C@@H]1C[C@H]1CC(C2CCN(C(=O)OC(C)(C)C)CC2)=NO1` [Ex 1.47], the IC50 turned out to be 660 nM in assay [1] and 6540 nM in assay [2].

Regarding `CO[C@@H]1[C@@H](n2cc(-c3cc(F)cc(Cl)c3)nn2)[C@@H](O)[C@@H](CO)O[C@@H]1Cc1cc(C2CCCCC2)on1` [Ex 1.178], the IC50 came out at 980 nM in assay [1] and 10300 nM in assay [2].

On to `CC(=O)N1CCC(C2=NO[C@H](C[C@H]3O[C@H](CO)[C@H](O)[C@H](n4cc(-c5cc(F)c(F)c(F)c5)nn4)[C@H]3O)C2)CC1` [Example 3.11, 1-(4-((S)-5-(((2R,3R,4R,5R,6R)-3,5-dihydroxy-6-(hydroxymethyl)-4-(4-(3,4,5-trifluorophenyl)-1H-1,2,3-triazol-1-yl)tetrahydro-2H-pyran-2-yl)methyl)-4,5-dihydroisoxazol-3-yl)piperidin-1-yl)ethan-1-one], for which the IC50 was determined as 150 nM in assay [1] and 1380 nM in assay [2].

For the compound `CO[C@@H]1[C@@H](n2cc(-c3cc(F)c(F)c(F)c3)nn2)[C@@H](O)[C@@H](CO)O[C@@H]1Cc1cn(C(C)(C)C)nn1` [Example 4.45, (2R,3R,4S,5R,6R)-6-((1-(tert-butyl)-1H-1,2,3-triazol-4-yl)methyl)-2-(hydroxymethyl)-5-methoxy-4-(4-(3,4,5-trifluorophenyl)-1H-1,2,3-triazol-1-yl)tetrahydro-2H-pyran-3-ol], the IC50 was found to be 85 nM in assay [1] and 1120 nM in assay [2].

For the compound `CO[C@@H]1[C@@H](n2cc(-c3ccc(C)c(F)c3)nn2)[C@@H](O)[C@@H](CO)O[C@@H]1Cc1cc(C(C)(C)C)on1` [Ex 1.189], the IC50 in assay [1] is 170 nM; in assay [2] it was 5430 nM.

For the compound `Cc1ccc(-c2cn([C@H]3[C@@H](O)[C@@H](CO)O[C@H](Cc4cc(C(C)(C)C)no4)[C@@H]3OCc3nccn3C)nn2)c(F)c1F` [Example 2.52, (2R,3R,4S,5R,6R)-6-((3-(tert-butyl)isoxazol-5-yl)methyl)-4-(4-(2,3-difluoro-4-methylphenyl)-1H-1,2,3-triazol-1-yl)-2-(hydroxymethyl)-5-((1-methyl-1H-imidazol-2-yl)methoxy)tetrahydro-2H-pyran-3-ol], the values for the IC50 in assay [1] and in assay [2] were 78 nM and 5130 nM, respectively.

Turning to `CCOC(=O)N1CCC(c2cc(C[C@H]3O[C@H](CO)[C@H](O)[C@H](n4cc(-c5ccc(C)c(F)c5)nn4)[C@H]3OC)no2)CC1` [Ex 1.201], the IC50 in assay [1] came out at 67 nM; in assay [2] it was 2940 nM.

On to `OC[C@H]1O[C@H](Cc2cc(C3(O)COC3)on2)[C@H](O)[C@@H](n2cc(-c3cc(F)c(F)c(F)c3)nn2)[C@H]1O` [Ex 1.59], for which the IC50 in assay [1] amounted to 400 nM; in assay [2] it was 6310 nM.

The record behind these values is US12319672B2, “Alpha-D-galactopyranoside derivatives” (Idorsia Pharmaceuticals Ltd, priority 2019, dated 2025).
